In the NIST ThermoML archive (doi:10.1016/j.jct.2004.11.015):
± gives the expanded uncertainty stated by the source.

Columns and labels:
[1] = Liquid; for mass density: 101.33 kPa
[2] = refractive index (Na D-line) (dimensionless); conditions: 101.33 kPa, Liquid, Abbe refractometer

Compound | mass density ([1]; 298.15 K) [kg/m3] | refractive index ([2]; 298.15 K) | further results
ClCC1CO1 (centres undefined) [1-chloro-2,3-epoxypropane] | 1174.6 ± 2 | 1.4358 ± 0.0007 | vapor or sublimation pressure ([1]; 389.15 K): 94.7 ± 9.6 kPa
Cc1ccccn1 [2-methylpyridine] | 939.8 ± 1.5 | 1.4984 ± 0.0007 | vapor or sublimation pressure ([1]; 398.05 K): 94.7 ± 9.6 kPa
CC(=O)CC(C)C [4-methylpentan-2-one] | 796.3 ± 1.2 | 1.3936 ± 0.0007 | vapor or sublimation pressure ([1]; 387.15 K): 94.7 ± 9.6 kPa
CC(=O)N(C)C [N,N-dimethylethanamide] | 936.3 ± 1.5 | 1.4356 ± 0.0007 | vapor or sublimation pressure ([1]; 415.35 K): 94.7 ± 9.6 kPa
CC(=O)c1ccccc1 [acetophenone] | – | – | mass density ([1]; 293.15 K): 1028.1 ± 1.3 kg/m3; vapor or sublimation pressure ([1]; 472.25 K): 94.7 ± 9.6 kPa; refractive index ([2]; 293.15 K): 1.5342 ± 0.0007
C=CC#N [acrylonitrile] | 800.4 ± 1.3 | 1.3888 ± 0.0007 | vapor or sublimation pressure ([1]; 348.85 K): 94.7 ± 9.6 kPa
CCc1ccccc1 [ethylbenzene] | 862.5 ± 1.1 | 1.4932 ± 0.0007 | vapor or sublimation pressure ([1]; 407.05 K): 94.7 ± 9.6 kPa
CCCCCO [pentan-1-ol] | 815 ± 1 | 1.4085 ± 0.0007 | vapor or sublimation pressure ([1]; 400.15 K): 94.7 ± 9.6 kPa
